Data: article PMC6720511, “Synthesis and biological evaluation of novel N-(piperazin-1-yl)alkyl-1H-dibenzo[a,c]carbazole derivatives of dehydroabietic acid as potential MEK inhibitors” (Journal of Enzyme Inhibition and Medicinal Chemistry, 2019)
Like-named read-outs stand apart in the source and are kept apart here. Peptide text beside a SMILES is read from it. * marks the point of attachment. Cbz = O=C(OCc1ccccc1)*; CH2F = FC*

Experiments:
Hep3B = experiment: MTT cytotoxic assay; assay type: cell-based, human; conditions: 48 h, mean value ± SD
Method: (§1) Three human hepatocarcinoma cell lines (SMMC-7721, HepG2 and Hep3B) and normal hepatocyte cell line (QSG-7701) were maintained in Dulbecco Modified Eagle Medium (DMEM) containing 4.0 mM L-Glutamine and 4500 mg/l Glucose supplemented with 10% (v/v) foetalbovine serum (FBS) and 100 unites/mL penicillin/streptomycin at 37 °C in humidified atmosphere of 5% CO2 and 95% air.
(§2) The in vitro cytotoxic activities of the carbazole derivatives of DHA were evaluated against three human hepatocarcinoma cell lines (SMMC-7721, HepG2 and Hep3B) and a normal human hepatocyte cell line (QSG-7701) via the MTT colorimetric method. Briefly, SMMC-7721, HepG2, Hep3B and QSG-7701 cells were harvested at log phase of growth and seeded in 96-well plates (100 µL/well at a density of 2 × 10^5 cells/mL). After 24 h incubation at 37 °C and 5% CO2 to allow cell attachment, cultures were exposed to various concentrations of the isolated compounds for 48 h. Finally, MTT solution (2.5 mg/mL in PBS) was added (40 µL/well). Plates were further incubated for 4 h at 37 °C, and the formazan crystals formed were dissolved by adding 150 µL/well of DMSO. Absorption at 570 nm was measured with an ELISA plate reader. […] Doxorubicin was co-assayed as positive control.

HepG2 = experiment: MTT cytotoxic assay; assay type: cell-based, human; conditions: mean value ± SD
Method: as §1, §2

SMMC-7721 = experiment: MTT cytotoxic assay; assay type: cell-based, human; conditions: mean value ± SD
Method: as §1, §2

[1] = tested on: normal hepatocyte cell line (QSG-7701); experiment: MTT cytotoxic assay on normal hepatocytes; assay type: cell-based, human; conditions: mean value ± SD
Method: as §1, §2

MEK1 [2] = molecular target: T1, MEK1 (Homo sapiens, UniProt Q02750); experiment: In vitro MEK1 inhibition assay (ADP-Glo kinase assay); assay type: biochemical; conditions: for IC50: recombinant GST-MEK1, GST-ERK2, 10 µM ATP, mean value ± SD, read-out: MEK1 inhibitory activity IC50 value
T1 construct: purchased Carna Biosciences, Japan
Method: An in vitro kinase assay of MEK1 was performed using ADP-Glo kinase assay (Promega, Madison, WI, USA) according to the manufacturer’s protocol. […] Reactions were stopped by adding 5 µL of ADP-Glo reagent to each well. After incubating at 22 °C for 40 min, 10 µL of the kinase detection reagent was added and the plates were incubated for another 30 min at 22 °C in the dark. The reaction mixture was analysed by EnSpire (PerkinElmer, Waltham, MA, USA). U0126 was used as the positive control for MEK1 inhibition.

HepG2 cells = experiment: Cell death inhibition assay; assay type: cell-based, human; conditions: 24 h
Method: Figure 6. Compound 10g induced oncosis and apoptosis of HepG2 cells. (a) PD150606 and Z-VAD-FMK partially reversed compound 10g-induced cell death. HepG2 cells were incubated with PD150606, Z-VAD-FMK or Necrostatin-1 at indicated concentration for 24 h alone or in combination with compound 10g at indicated concentration for 24 h. (b) Compound 10g induced the degradation of α-tubulin and β-actin, and activated oncosis marker calpain-1 autolysis from the 80 kDa event to 76 kDa event in western blot analysis. *, p < 0.01; **, p < 0.01; #, p < 0.01; &, p < 0.001. (c) Compound 10g induced the upregulation of apoptotic protein Bax, caspase-3, caspase-9 and plasmic cytochrome c levels, and the downregulation of antiapoptotic protein Bcl-2 level. *, p < 0.001; **, p < 0.01; #, p < 0.01; and p < 0.01.

[3] = tested on: three human hepatocarcinoma cell lines (SMMC-7721, HepG2 and Hep3B); experiment: MTT cytotoxic assay, statements over the three cancer cell lines; assay type: cell-based
Method: as §1, §2

MEK1 [4] = molecular target: T1, MEK1; experiment: Preliminary screening of in vitro MEK1 inhibitory activity; assay type: biochemical
MEK1/2 = tested on: MEK1/2; design: method as in PMID 21245089; conditions: cited from earlier work
[5] = Homo sapiens, at least one of SMMC-7721, HepG2, Hep3B, read-out: IC50 against at least one hepatocarcinoma cell line

T1 sequence (Q02750 whole entry): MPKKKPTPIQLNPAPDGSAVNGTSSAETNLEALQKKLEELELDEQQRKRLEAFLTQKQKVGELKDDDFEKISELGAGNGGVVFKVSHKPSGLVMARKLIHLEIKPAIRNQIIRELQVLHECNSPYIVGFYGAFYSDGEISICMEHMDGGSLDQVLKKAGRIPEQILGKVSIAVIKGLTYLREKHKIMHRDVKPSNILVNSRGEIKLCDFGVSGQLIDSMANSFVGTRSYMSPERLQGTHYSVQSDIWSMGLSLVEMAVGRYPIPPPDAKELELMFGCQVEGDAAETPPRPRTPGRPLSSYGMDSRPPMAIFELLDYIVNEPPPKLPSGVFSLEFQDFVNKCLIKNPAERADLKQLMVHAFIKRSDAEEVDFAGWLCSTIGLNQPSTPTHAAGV

IC50 (MEK1 [2]) | Compound | IC50 (Hep3B; Homo sapiens, Hep3B) | IC50 (HepG2; Homo sapiens, HepG2, 48 h) | IC50 (SMMC-7721; Homo sapiens, SMMC-7721, 48 h) | IC50 ([1]; Homo sapiens, QSG7701, 48 h) | other results
> 20 µM | CCc1ccc2c(c1)c1c(n2CCN2CCNCC2)-c2cc(C(C)C)ccc2C2(C)CCCC(C)(C(=O)OC)C12 (centres unmarked) [Compound 10c, 2,3,4,4a,9,13c-Hexahydro-12-ethyl-7-isopropyl-1,4a-dimethyl-9–(2-(piperazin-1-yl)ethyl)-1H-dibenzo[a,c]carbazole-1-carboxylic acid methyl ester] | 5.84 ± 0.36 µM | 7.27 ± 0.51 µM | 6.56 ± 0.19 µM | 22.2 ± 1.81 µM | –
> 20 µM | COC(=O)C1(C)CCCC2(C)c3ccc(C(C)C)cc3-c3c(c4cc(C(C)C)ccc4n3CCN3CCNCC3)C12 (centres unmarked) [Compound 10d, 2,3,4,4a,9,13c-Hexahydro-7,12-diisopropyl-1,4a-dimethyl-9–(2-(piperazin-1-yl)ethyl)-1H-dibenzo[a,c]carbazole-1-carboxylic acid methyl ester] | 8.85 ± 0.42 µM | 8.42 ± 0.39 µM | 10.5 ± 0.48 µM | 31 ± 2.39 µM | –
> 20 µM | COC(=O)C1(C)CCCC2(C)c3ccc(C(C)C)cc3-c3c(c4cc(F)ccc4n3CCN3CCNCC3)C12 (centres unmarked) [Compound 10i, 2,3,4,4a,9,13c-Hexahydro-12-fluoro-7-isopropyl-1,4a-dimethyl-9–(2-(piperazin-1-yl)ethyl)-1H-dibenzo[a,c]carbazole-1-carboxylic acid methyl ester] | 3.32 ± 0.2 µM | 3.91 ± 0.34 µM | 4.32 ± 0.27 µM | 23.7 ± 1.53 µM | –
– | COC(=O)C[C@H](NC(=O)[C@H](C)NC(=O)[C@@H](NC(=O)OCc1ccccc1)C(C)C)C(=O)CF [Z-VAD-FMK] (Cbz-Val-Ala-Asp(OMe)-CH2F) | – | – | – | – | relative cell viability of HepG2 cells treated with 10g plus inhibitor (HepG2 cells; 10g 10 µM in combination with Z-VAD-FMK): 16.53%
13.2 ± 0.73 µM | COC(=O)C1(C)CCCC2(C)c3ccc(C(C)C)cc3-c3c(c4ccccc4n3CCN3CCNCC3)C12 (centres unmarked) [Compound 6a, 2,3,4,4a,9,13c-Hexahydro-7-isopropyl-1,4a-dimethyl-9–(2-(piperazin-1-yl)ethyl) -1H-dibenzo[a,c]carbazole-1-carboxylic acid methyl ester] | 0.82 ± 0.08 µM | 2.28 ± 0.19 µM | 5.2 ± 0.21 µM | 8.75 ± 0.65 µM | MEK1 inhibitory activity (in words) (MEK1 [2]): weak MEK1 inhibitory activity; IC50 [3, 5]: < 10 µM; MEK1 inhibitory activity in preliminary screening (in words) (MEK1 [4]): moderate inhibitory activity
1.63 ± 0.12 µM | CCOc1cccc2c3c(n(CCN4CCNCC4)c12)-c1cc(C(C)C)ccc1C1(C)CCCC(C)(C(=O)OC)C31 (centres unmarked) [Compound 10h, 2,3,4,4a,9,13c-Hexahydro-10-ethoxy-7-isopropyl-1,4a-dimethyl-9–(2-(piperazin-1-yl)ethyl)-1H-dibenzo[a,c]carbazole-1-carboxylic acid methyl ester] | 1.78 ± 0.12 µM | 4.87 ± 0.48 µM | 2.21 ± 0.17 µM | 18.9 ± 1.09 µM | –
6.36 ± 0.51 µM | COC(=O)C1(C)CCCC2(C)c3ccc(C(C)C)cc3-c3c(c4cc(C)ccc4n3CCN3CCNCC3)C12 (centres unmarked) [Compound 10a, 2,3,4,4a,9,13c-Hexahydro-7-isopropyl-1,4a,12-trimethyl-9–(2-(piperazin-1-yl)ethyl)-1H-dibenzo[a,c]carbazole-1-carboxylic acid methyl ester] | 1.17 ± 0.12 µM | 3.05 ± 0.37 µM | 1.73 ± 0.22 µM | 16.3 ± 1.56 µM | –
> 20 µM | COC(=O)C1(C)CCCC2(C)c3ccc(C(C)C)cc3-c3c(c4cccc(C)c4n3CCN3CCNCC3)C12 (centres unmarked) [Compound 10b, 2,3,4,4a,9,13c-Hexahydro-7-isopropyl-1,4a,10-trimethyl-9–(2-(piperazin-1-yl)ethyl)-1H-dibenzo[a,c]carbazole-1-carboxylic acid methyl ester] | 5.03 ± 0.31 µM | 6.11 ± 0.38 µM | 5.52 ± 0.47 µM | 21.9 ± 1.72 µM | –
– | CN1C(=O)C(Cc2c[nH]c3ccccc23)NC1=S (centres unmarked) [Necrostatin-1] | – | – | – | – | effect of inhibitor on cell death caused by compound 10g (in words) (HepG2 cells; in combination with 10g): no apparent effect
– | O=C(O)/C(S)=C/c1ccc(I)cc1 [PD150606] | – | – | – | – | relative cell viability of HepG2 cells treated with 10g plus inhibitor (HepG2 cells; 10g 10 µM in combination with PD150606 50 µM): 44.87%
– | CC(=O)Nc1cccc(-n2c(=O)n(C3CC3)c(=O)c3c(Nc4ccc(I)cc4F)n(C)c(=O)c(C)c32)c1 [trametinib] | – | – | – | – | IC50 (MEK1/2): 0.0007 to 0.0009 µM
5.62 ± 0.48 µM | COC(=O)C1(C)CCCC2(C)c3ccc(C(C)C)cc3-c3c(c4cc(Cl)ccc4n3CCN3CCNCC3)C12 (centres unmarked) [Compound 10j, 2,3,4,4a,9,13c-Hexahydro-12-chloro-7-isopropyl-1,4a-dimethyl-9–(2-(piperazin-1-yl)ethyl)-1H-dibenzo[a,c]carbazole-1-carboxylic acid methyl ester] | 3.75 ± 0.34 µM | 2.88 ± 0.23 µM | 2.49 ± 0.18 µM | 12.2 ± 1.01 µM | –
1.28 ± 0.06 µM | COC(=O)C1(C)CCCC2(C)c3ccc(C(C)C)cc3-c3c(c4cc(OC)ccc4n3CCN3CCNCC3)C12 (centres unmarked) [Compound 10e, 2,3,4,4a,9,13c-Hexahydro-7-isopropyl-12-methoxy-1,4a-dimethyl-9–(2-(piperazin-1-yl)ethyl)-1H-dibenzo[a,c]carbazole-1-carboxylic acid methyl ester] | 4.38 ± 0.35 µM | 3.73 ± 0.19 µM | 3.02 ± 0.21 µM | 15.3 ± 1.13 µM | –
0.23 ± 0.03 µM | COC(=O)C1(C)CCCC2(C)c3ccc(C(C)C)cc3-c3c(c4cccc(OC)c4n3CCN3CCNCC3)C12 (centres unmarked) [Compound 10f, 2,3,4,4a,9,13c-Hexahydro-7-isopropyl-10-methoxy-1,4a-dimethyl-9–(2-(piperazin-1-yl)ethyl)-1H-dibenzo[a,c]carbazole-1-carboxylic acid methyl ester] | 2.23 ± 0.16 µM | 3.15 ± 0.13 µM | 2.03 ± 0.15 µM | 17.3 ± 0.78 µM | –
– | COC(=O)C1(C)CCCC2(C)c3ccc(C(C)C)cc3-c3c(c4ccccc4n3CCN3CCCNCC3)C12 (centres unmarked) [Compound 6d, 2,3,4,4a,9,13c-Hexahydro-7-isopropyl-1,4a-dimethyl-9–(2-(1,4-diazepan-1-yl)ethyl)-1H-dibenzo[a,c]carbazole-1-carboxylic acid methyl ester] | 6.31 ± 0.33 µM | 5.87 ± 0.42 µM | 7.01 ± 0.74 µM | 22.1 ± 2.75 µM | IC50 [3, 5]: < 10 µM
– | 2,3,4,4a,9,13c-Hexahydro-7-isopropyl-1,4a-dimethyl-9–(2-(piperazin-1-yl) propyl)-1H-dibenzo[a,c]carbazole-1-carboxylic acid methyl ester [Compound 7a] | – | – | – | – | IC50 (Hep3B): 1.37 ± 0.2 µM; IC50 (HepG2; 48 h): 3.1 ± 0.45 µM; IC50 (SMMC-7721; 48 h): 5.1 ± 0.18 µM; IC50 ([1]; 48 h): 17.2 ± 1.89 µM; IC50 ([3]; at least one of SMMC-7721, HepG2, Hep3B, read-out: IC50 against at least one hepatocarcinoma cell line): < 10 µM; IC50 ([3]; over SMMC-7721, HepG2 and Hep3B, read-out: IC50 against the three cancer cell lines): 1.37 to 5.1 µM
